Consider two compounds from US20120039820A1 (Glaxo Group Limited, priority 2009, published 2012).

The test system of one assay is Escherichia coli. The experiment in a line: MIC test (broth microdilution, turbidity). The format is cell-based. The following applies: TSB, 37° C., 24 hours. As to the method:
(§1) The MIC of a material composition was determined by the following method. A fresh culture of the test inoculum of each bacterium was diluted in sterile 0.1% special peptone solution to give a concentration of approximately 10^6 colony forming units (cfu) per ml. Test samples of material were diluted in sterile tryptone soya broth (TSB) to give an initial stock solution, typically of 1% or 2% (10,000 or 20,000 ppm). However, it will be appreciated that the concentration of the initial stock solution of material can be varied if desired to investigate a different range of concentrations. Each row of a standard, 96-well plastic microtitre plate (labelled A-H) was allocated to one sample, i. e. eight samples per plate. Row H contained only TSB for use as a bacterial control to indicate the degree of turbidity resulting from bacterial growth in the absence of any test material.
(§2) Aseptically, 200 μl of the initial dilution of material was transferred to the 1st and 7th well of the appropriate row. All other test wells were filled with 100 μl of sterile TSB using an 8- channel micro-pipette. The contents of each of the wells in column 1 were mixed by sucking samples up and down the pipette tips, before 100 μl was transferred to column 2.
(§3) The same sterile pipette tips were used to transfer 100 μl of each well in column 7 into the appropriate well in column 8. This set of eight tips was then discarded into disinfectant solution. Using eight fresh, sterile tips the process was repeated by transferring 100 μl from column 2 into column 3 (and into 8 and 9). The process was continued until all the wells in columns 6 and 12 contained 200 μl. After mixing, 100 μl was discarded from wells in columns 6 and 12 to waste. Finally, 100 μl of pre-diluted bacterial test culture (approx 10^6 cfu/ml) was added, thus giving a final volume of 200 μl in each well.
(§4) A blank plate was prepared for each set of eight samples in exactly the same way, except that 100 μl of sterile TSB was added instead of the bacterial culture. This plate was used as the control plate against which the test plate (s) could be read.
(§5) Test and control plates were then sealed using autoclave tape and incubated at 37° C. for 24 hours. The wells were examined after 24 hours for turbidity to determine if the material had inhibited growth or not. Plates are then read in a suitable microtitre plate reader at an absorbance of 540 nm as a measure of turbidity resulting from bacterial growth. The control, un-inoculated plate for each set of samples was read first, and the plate reader then programmed to use the control readings to blank all other plate readings for the inoculated plates for the same set of test materials (i. e. removing turbidity due to material and possible colour changes during incubation). Thus, the corrected readings generated were absorbances resulting from turbidity from bacterial growth.
On the technique in general: Broth dilution looks for growth in wells or tubes with falling amounts of substance.

For another assay, the system named is Staphylococcus aureus. As to the kind of experiment: MIC test (broth microdilution, turbidity). The following applies: TSB, 37° C., 24 hours. In kind it is cell-based. The procedure: as §1, §2, §3, §4, §5
For a further assay, the system named is Streptococcus mutans. The experiment in a line: MIC test (broth microdilution, turbidity). In kind it is cell-based. The following applies: TSB, 37° C., 24 hours. As to the method: as §1, §2, §3, §4, §5
For the next assay, the system named is S. aureus. As to the kind of experiment: Kill time suspension test. The format is cell-based, Staphylococcus aureus.

Description for S. aureus: This is set aside for approximately 2 minutes. 8 ml of test product is added, a timing clock started and immediately vortexed for 5 seconds.
To 8 ml of ‘Test Sample’ add 1 ml of sterile purified water and 1 ml of synthetic saliva. This is the ‘validation solution’.
The mean number of survivors is calculated for the each test and appropriate control samples, and expressed as the log to the base 10 (Log count).

Regarding `Cc1cc(O)ccc1C(C)C` [IPMP, 4-isopropyl-3-methylphenol], the MIC was 312 parts per million against Escherichia coli, 156 parts per million against Staphylococcus aureus and 1250 parts per million against Streptococcus mutans.
For the compound zinc gluconate [Zn Gluconate], the figures for the MIC with Escherichia coli, against Staphylococcus aureus and against Streptococcus mutans were 1560 parts per million, 6250 parts per million and 6250 parts per million, respectively. Further, in the assay on S. aureus, the “kill (in words)” value is listed as “ineffective”.
